Test results as given in ChEMBL document CHEMBL4507296 (2021).

Key:
[1] = target: Muscarinic acetylcholine receptor M3 (Homo sapiens) (UniProt P20309); assay: Muscarinic M3 (human) CEREP ligand profiling; details: Compound concentration 10.0 uM
[2] = tested on: Tyrosine-protein kinase ABL1 (Homo sapiens), P00519 [F317L]; details: Compound concentration 1000.0 nM
[3] = tested on: Tyrosine-protein kinase ABL1 (Homo sapiens), P00519 [T315I]; details: Compound concentration 1000.0 nM
[4] = target: Ankyrin repeat and protein kinase domain-containing protein 1 (Homo sapiens) (UniProt Q8NFD2); details: Compound concentration 1000.0 nM
[5] = target: Tyrosine-protein kinase receptor UFO (Homo sapiens) (UniProt P30530); details: Compound concentration 1000.0 nM
[6] = target: Calcium/calmodulin-dependent protein kinase type 1G (Homo sapiens) (UniProt Q96NX5); details: Compound concentration 1000.0 nM
[7] = target: Calcium/calmodulin-dependent protein kinase kinase 1 (Homo sapiens) (UniProt Q8N5S9); details: Compound concentration 1000.0 nM
[8] = target: Cyclin-dependent kinase 11A (Homo sapiens) (UniProt Q9UQ88); details: Compound concentration 1000.0 nM
[9] = target: Serine/threonine-protein kinase Chk2 (Homo sapiens) (UniProt O96017); details: Compound concentration 1000.0 nM
[10] = target: Dual specificity protein kinase CLK1 (Homo sapiens) (UniProt P49759); details: Compound concentration 1000.0 nM
[11] = target: Death-associated protein kinase 3 (Homo sapiens) (UniProt O43293); details: Compound concentration 1000.0 nM
[12] = target: Serine/threonine-protein kinase MRCK gamma (Homo sapiens) (UniProt Q6DT37); details: Compound concentration 1000.0 nM
[13] = target: Serine/threonine-protein kinase 17B (Homo sapiens) (UniProt O94768); details: Compound concentration 1000.0 nM
[14] = tested on: Epidermal growth factor receptor (Homo sapiens), P00533 [UNDEFINED MUTATION]; details: Compound concentration 1000.0 nM
[15] = target: Ephrin type-B receptor 6 (Homo sapiens) (UniProt O15197); details: Compound concentration 1000.0 nM
[16] = target: Fibroblast growth factor receptor 4 (Homo sapiens) (UniProt P22455); details: Compound concentration 1000.0 nM
[17] = target: Receptor-type tyrosine-protein kinase FLT3 (Homo sapiens) (UniProt P36888); details: Compound concentration 1000.0 nM
[18] = tested on: Receptor-type tyrosine-protein kinase FLT3 (Homo sapiens), P36888 [R834Q]; details: Compound concentration 1000.0 nM
[19] = target: G protein-coupled receptor kinase 4 (Homo sapiens) (UniProt P32298); details: Compound concentration 1000.0 nM
[20] = target: Rhodopsin kinase GRK7 (Homo sapiens) (UniProt Q8WTQ7); details: Compound concentration 1000.0 nM
[21] = target: Tyrosine-protein kinase HCK (Homo sapiens) (UniProt P08631); details: Compound concentration 1000.0 nM
[22] = target: Tyrosine-protein kinase JAK1 (Homo sapiens) (UniProt P23458); details: Compound concentration 1000.0 nM
[23] = target: Serine/threonine-protein kinase LATS1 (Homo sapiens) (UniProt O95835); details: Compound concentration 1000.0 nM
[24] = target: Leukocyte tyrosine kinase receptor (Homo sapiens) (UniProt P29376); details: Compound concentration 1000.0 nM
[25] = target: Mitogen-activated protein kinase kinase kinase 4 (Homo sapiens) (UniProt Q9Y6R4); details: Compound concentration 1000.0 nM
[26] = target: MAP/microtubule affinity-regulating kinase 4 (Homo sapiens) (UniProt Q96L34); details: Compound concentration 1000.0 nM
[27] = target: Mitogen-activated protein kinase kinase kinase 10 (Homo sapiens) (UniProt Q02779); details: Compound concentration 1000.0 nM
[28] = target: Serine/threonine-protein kinase Nek2 (Homo sapiens) (UniProt P51955); details: Compound concentration 1000.0 nM
[29] = target: Serine/threonine-protein kinase Nek5 (Homo sapiens) (UniProt Q6P3R8); details: Compound concentration 1000.0 nM
[30] = target: Cyclin-dependent kinase 15 (Homo sapiens) (UniProt Q96Q40); details: Compound concentration 1000.0 nM
[31] = target: Membrane-associated tyrosine- and threonine-specific cdc2-inhibitory kinase (Homo sapiens) (UniProt Q99640); details: Compound concentration 1000.0 nM
[32] = target: Serine/threonine-protein kinase PLK4 (Homo sapiens) (UniProt O00444); details: Compound concentration 1000.0 nM
[33] = target: Protein kinase C eta type (Homo sapiens) (UniProt P24723); details: Compound concentration 1000.0 nM
[34] = target: Serine/threonine-protein kinase SIK3 (Homo sapiens) (UniProt Q9Y2K2); details: Compound concentration 1000.0 nM
[35] = target: Rho-associated protein kinase 1 (Homo sapiens) (UniProt Q13464); details: Compound concentration 1000.0 nM
[36] = target: Ribosomal protein S6 kinase alpha-2 (Homo sapiens) (UniProt Q15349); details: Compound concentration 1000.0 nM
[37] = target: Tyrosine-protein kinase Srms (Homo sapiens) (UniProt Q9H3Y6); details: Compound concentration 1000.0 nM
[38] = target: SRSF protein kinase 2 (Homo sapiens) (UniProt P78362); details: Compound concentration 1000.0 nM
[39] = target: Serine/threonine-protein kinase tousled-like 1 (Homo sapiens) (UniProt Q9UKI8); details: Compound concentration 1000.0 nM
[40] = target: High affinity nerve growth factor receptor (Homo sapiens) (UniProt P04629); details: Compound concentration 1000.0 nM
[41] = target: NT-3 growth factor receptor (Homo sapiens) (UniProt Q16288); details: Compound concentration 1000.0 nM
[42] = target: Transient receptor potential cation channel subfamily M member 6 (Homo sapiens) (UniProt Q9BX84); details: Compound concentration 1000.0 nM
[43] = target: Dual specificity protein kinase TTK (Homo sapiens) (UniProt P33981); details: Compound concentration 1000.0 nM
[44] = target: 5-hydroxytryptamine receptor 1B (Homo sapiens) (UniProt P28222); details: Compound concentration 10.0 uM
[45] = target: 5-hydroxytryptamine receptor 2A (Homo sapiens) (UniProt P28223); details: Compound concentration 10.0 uM

Calcium/calmodulin-dependent protein kinase kinase 1 (Homo sapiens), sequence (Q8N5S9 whole entry, looked up): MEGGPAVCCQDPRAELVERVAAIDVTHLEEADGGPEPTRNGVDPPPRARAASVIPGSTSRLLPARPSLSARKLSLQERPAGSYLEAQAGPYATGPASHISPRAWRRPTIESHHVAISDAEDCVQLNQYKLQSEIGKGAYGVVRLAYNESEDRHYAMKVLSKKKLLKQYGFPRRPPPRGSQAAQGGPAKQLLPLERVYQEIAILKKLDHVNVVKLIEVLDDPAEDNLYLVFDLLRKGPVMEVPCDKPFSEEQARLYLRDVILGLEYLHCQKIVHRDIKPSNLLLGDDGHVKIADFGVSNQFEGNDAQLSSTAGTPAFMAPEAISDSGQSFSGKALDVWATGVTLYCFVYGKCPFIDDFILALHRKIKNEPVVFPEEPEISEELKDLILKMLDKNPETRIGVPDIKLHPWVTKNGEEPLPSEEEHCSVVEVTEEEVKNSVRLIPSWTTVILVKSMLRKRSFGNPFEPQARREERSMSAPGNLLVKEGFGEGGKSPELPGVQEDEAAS
Tyrosine-protein kinase HCK (Homo sapiens), sequence (P08631 2-526 limits assumed): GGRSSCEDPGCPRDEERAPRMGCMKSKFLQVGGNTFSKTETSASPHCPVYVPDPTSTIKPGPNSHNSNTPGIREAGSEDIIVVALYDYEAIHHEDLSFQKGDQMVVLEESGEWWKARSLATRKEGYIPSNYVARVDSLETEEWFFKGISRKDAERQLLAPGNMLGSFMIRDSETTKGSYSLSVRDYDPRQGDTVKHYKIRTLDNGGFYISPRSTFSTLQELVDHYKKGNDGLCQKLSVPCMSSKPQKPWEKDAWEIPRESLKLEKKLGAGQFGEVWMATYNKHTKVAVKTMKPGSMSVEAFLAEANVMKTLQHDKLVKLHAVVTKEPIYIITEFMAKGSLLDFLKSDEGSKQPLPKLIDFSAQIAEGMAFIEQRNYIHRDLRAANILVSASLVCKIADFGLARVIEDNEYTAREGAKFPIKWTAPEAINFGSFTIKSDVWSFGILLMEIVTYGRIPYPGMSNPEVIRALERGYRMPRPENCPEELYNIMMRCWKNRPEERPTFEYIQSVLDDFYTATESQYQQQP
Cyclin-dependent kinase 15 (Homo sapiens), sequence (Q96Q40 whole entry): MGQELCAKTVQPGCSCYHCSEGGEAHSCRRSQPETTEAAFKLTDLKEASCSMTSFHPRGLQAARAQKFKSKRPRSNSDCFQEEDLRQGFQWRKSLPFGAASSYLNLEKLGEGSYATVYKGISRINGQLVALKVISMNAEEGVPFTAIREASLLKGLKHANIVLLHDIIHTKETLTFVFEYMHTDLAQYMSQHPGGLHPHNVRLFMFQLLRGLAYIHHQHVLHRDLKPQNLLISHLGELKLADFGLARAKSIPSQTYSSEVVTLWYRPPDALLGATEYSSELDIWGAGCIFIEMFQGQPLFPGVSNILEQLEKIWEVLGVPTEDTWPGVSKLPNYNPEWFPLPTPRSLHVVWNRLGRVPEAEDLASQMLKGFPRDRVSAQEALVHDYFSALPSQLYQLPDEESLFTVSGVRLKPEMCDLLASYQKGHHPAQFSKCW
Serine/threonine-protein kinase Chk2 (Homo sapiens), sequence (O96017 whole entry): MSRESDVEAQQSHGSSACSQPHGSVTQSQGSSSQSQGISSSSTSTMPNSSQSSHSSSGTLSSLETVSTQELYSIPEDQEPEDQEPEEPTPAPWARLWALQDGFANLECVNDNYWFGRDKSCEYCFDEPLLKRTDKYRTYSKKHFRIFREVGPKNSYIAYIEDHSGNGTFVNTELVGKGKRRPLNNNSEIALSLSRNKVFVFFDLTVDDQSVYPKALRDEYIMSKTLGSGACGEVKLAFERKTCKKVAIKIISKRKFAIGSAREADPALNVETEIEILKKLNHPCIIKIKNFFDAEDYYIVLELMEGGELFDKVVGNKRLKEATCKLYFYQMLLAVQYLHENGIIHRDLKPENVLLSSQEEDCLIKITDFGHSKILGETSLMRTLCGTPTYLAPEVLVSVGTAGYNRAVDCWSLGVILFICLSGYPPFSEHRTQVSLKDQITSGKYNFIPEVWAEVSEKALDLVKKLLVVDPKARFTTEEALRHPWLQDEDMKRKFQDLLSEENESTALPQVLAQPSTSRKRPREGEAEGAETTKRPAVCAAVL
Ephrin type-B receptor 6 (Homo sapiens), sequence (O15197 whole entry): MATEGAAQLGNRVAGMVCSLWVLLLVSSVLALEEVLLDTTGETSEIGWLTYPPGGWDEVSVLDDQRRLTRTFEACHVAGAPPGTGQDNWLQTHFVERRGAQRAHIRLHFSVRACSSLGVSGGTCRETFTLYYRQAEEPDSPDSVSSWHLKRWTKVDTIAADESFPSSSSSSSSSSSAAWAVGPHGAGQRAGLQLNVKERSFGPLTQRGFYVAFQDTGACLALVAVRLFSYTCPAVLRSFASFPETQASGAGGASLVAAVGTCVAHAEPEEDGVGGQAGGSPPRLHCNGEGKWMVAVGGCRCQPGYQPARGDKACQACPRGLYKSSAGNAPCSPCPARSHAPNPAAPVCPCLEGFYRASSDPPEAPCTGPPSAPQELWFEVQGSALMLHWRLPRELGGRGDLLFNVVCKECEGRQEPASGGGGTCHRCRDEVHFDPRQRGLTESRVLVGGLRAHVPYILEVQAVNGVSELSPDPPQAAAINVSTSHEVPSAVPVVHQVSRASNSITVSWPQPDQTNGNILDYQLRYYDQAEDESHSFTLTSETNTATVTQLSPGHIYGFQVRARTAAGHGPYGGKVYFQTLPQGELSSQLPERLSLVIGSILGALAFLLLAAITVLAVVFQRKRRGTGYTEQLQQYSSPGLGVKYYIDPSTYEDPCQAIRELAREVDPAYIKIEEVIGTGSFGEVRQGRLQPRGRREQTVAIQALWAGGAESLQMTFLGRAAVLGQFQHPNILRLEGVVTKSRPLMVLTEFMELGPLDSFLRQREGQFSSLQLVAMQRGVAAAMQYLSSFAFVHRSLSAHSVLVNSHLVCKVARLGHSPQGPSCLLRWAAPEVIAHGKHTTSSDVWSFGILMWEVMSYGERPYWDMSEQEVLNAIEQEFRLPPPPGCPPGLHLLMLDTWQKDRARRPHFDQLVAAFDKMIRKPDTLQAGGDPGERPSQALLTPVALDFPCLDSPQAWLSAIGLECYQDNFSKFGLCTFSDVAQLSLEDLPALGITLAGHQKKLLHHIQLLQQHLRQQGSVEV
Rho-associated protein kinase 1 (Homo sapiens), sequence (Q13464 2-1354 limits assumed): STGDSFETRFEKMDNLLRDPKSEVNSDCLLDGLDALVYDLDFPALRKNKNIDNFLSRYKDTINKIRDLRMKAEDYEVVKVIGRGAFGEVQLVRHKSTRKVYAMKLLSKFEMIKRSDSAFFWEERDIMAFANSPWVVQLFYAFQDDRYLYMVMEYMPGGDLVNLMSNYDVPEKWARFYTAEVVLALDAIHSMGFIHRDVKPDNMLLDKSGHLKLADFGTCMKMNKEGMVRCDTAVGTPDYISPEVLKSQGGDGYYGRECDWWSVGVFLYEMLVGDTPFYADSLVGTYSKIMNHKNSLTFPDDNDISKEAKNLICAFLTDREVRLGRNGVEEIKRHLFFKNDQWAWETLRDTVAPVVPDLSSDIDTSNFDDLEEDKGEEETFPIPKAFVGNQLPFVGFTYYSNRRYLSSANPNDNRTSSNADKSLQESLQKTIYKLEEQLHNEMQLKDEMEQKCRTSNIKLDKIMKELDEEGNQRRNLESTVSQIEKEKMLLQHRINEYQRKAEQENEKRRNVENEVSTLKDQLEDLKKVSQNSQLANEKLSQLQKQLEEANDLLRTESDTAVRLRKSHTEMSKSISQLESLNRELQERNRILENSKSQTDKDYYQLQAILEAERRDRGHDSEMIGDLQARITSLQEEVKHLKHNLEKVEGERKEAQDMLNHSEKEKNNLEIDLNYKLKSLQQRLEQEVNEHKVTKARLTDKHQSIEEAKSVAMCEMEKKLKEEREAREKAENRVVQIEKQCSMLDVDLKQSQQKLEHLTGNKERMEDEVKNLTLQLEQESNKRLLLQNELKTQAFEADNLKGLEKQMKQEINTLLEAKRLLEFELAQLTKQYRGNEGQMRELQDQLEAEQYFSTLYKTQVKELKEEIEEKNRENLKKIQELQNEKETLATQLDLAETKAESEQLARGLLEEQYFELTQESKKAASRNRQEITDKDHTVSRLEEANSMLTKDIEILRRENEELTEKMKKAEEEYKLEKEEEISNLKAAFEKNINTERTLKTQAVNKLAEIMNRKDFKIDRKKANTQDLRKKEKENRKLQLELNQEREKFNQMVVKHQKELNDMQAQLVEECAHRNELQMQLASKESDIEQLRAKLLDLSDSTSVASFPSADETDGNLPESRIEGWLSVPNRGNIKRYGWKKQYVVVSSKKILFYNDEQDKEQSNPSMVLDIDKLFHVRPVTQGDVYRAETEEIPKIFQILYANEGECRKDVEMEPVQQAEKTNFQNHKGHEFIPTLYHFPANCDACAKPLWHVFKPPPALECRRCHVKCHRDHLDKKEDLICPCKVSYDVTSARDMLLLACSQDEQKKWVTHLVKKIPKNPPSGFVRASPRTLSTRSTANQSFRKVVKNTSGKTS
Muscarinic acetylcholine receptor M3 (Homo sapiens), sequence (P20309 whole entry, looked up): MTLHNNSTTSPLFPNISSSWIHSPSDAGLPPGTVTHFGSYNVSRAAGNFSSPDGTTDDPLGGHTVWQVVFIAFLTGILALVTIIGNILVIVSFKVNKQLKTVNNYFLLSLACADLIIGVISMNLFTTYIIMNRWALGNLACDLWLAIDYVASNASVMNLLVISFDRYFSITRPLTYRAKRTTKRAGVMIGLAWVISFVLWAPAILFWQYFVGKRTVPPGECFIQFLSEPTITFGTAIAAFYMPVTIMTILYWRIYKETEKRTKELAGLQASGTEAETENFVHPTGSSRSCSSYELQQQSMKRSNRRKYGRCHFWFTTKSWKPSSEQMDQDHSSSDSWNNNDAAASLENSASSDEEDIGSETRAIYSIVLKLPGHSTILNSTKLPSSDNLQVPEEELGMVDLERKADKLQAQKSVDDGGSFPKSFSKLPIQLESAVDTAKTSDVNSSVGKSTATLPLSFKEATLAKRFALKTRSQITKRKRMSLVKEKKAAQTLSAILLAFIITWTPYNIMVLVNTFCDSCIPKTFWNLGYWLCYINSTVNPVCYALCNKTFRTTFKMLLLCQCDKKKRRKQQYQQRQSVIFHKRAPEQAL

C[C@H](c1ccc(F)cc1)N(Cc1cccc(C(=O)O)c1)C(=O)c1cnc2ccccc2c1 [PF-05105679]
inactive: inhibition [1] 21% | residual activity [2] 91% | residual activity [3] 75% | residual activity [4] 81% | residual activity [5] 100% | residual activity [6] 100% | residual activity [7] 100% | residual activity [8] 100% | residual activity [9] 91% | residual activity [10] 91% | residual activity [11] 100% | residual activity [12] 100% | residual activity [13] 80% | residual activity [14] 100% | residual activity [15] 88% | residual activity [16] 91% | residual activity [17] 100% | residual activity [18] 100% | residual activity [19] 100% | residual activity [20] 100% | residual activity [21] 88% | residual activity [22] 100% | residual activity [23] 100% | residual activity [24] 90% | residual activity [25] 100% | residual activity [26] 100% | residual activity [27] 100% | residual activity [28] 94% | residual activity [29] 100% | residual activity [30] 100% | residual activity [31] 68% | residual activity [32] 100% | residual activity [33] 75% | residual activity [34] 80% | residual activity [35] 100% | residual activity [36] 100% | residual activity [37] 100% | residual activity [38] 98% | residual activity [39] 97% | residual activity [40] 100% | residual activity [41] 92% | residual activity [42] 100% | residual activity [43] 100% | inhibition [44] 4.38% | inhibition [45] -0.2%
